Experimental data as given in patent publication US20140178432A1, “PRODUCTION OF DENSE BODIES (DB) FROM HCMV-INFECTED CELLS” (priority 2011, published 2014).
“Also recorded” adds a separate entry of the source.

Columns and labels:
Type in all cases: cell-based, human cytomegalovirus (HCMV)
HCMV strain AD169 = assay: Dense Body (DB) production in human foreskin fibroblasts infected with HCMV strain AD169, electron microscopy; conditions: for infectious virus particles in the cytoplasm of treated cells / accumulation of DB in the cytoplasm (electron microscope): HFF infected with HCMV AD169, 5 days incubation, A: 50 nmol/l, B: 5 nmol/l, C: 500 nmol/l, D: 500 nmol/l; for infectious virus particles in the cytoplasm of treated cells: untreated cells relatively large numbers; for accumulation of DB in the cytoplasm (electron microscope): untreated cells virtually no DB; for concentration that led to optimal results (DB production): HFF infected with HCMV strain AD169
Method: (§1) Human foreskin fibroblasts (“human foreskin fibroblasts, HFF”) were added in an amount of 1×10^6 cells per flask in 5 T75-cell culture flasks on the day before the infection. The HCMV strain AD 169 was prepared as a frozen, cell-free virus preparation that was obtained from cells that were present in a late stage of infection. The substances (A), (B), (C), and (D) according to the invention were provided as stock solutions of 50 mmol/l each in DMSO.
The stock solutions were diluted 1:1000 to a final concentration of 50 μmol/l. The solutions were further diluted as follows: A: 1:1000 (50 nmol/l) 12 μml in 12 ml of MEM; B: 1:10,000 (5 nmol/l) 1.2 μml in 12 ml of MEM; C: 1:100 (500 nmol/l) 120 μml in 12 ml of MEM; D: 1,100 (500 nmol/l) 120 μml in 12 ml of MEM.
(§2) The HFF cells were incubated for one hour with the virus preparation at a m.o.i. (“multiplicity of infection”) of ≧≧1 TCID 50/cell (1:20 dilution). Then, the virus supernatant was removed, and an incubation of the infected cells was carried out with the substances according to the invention at the following concentrations: A: 50 nmol/l; B: 5 nmol/l; C: 500 nmol/l; D: 500 nmol/l.
(§3) The cells were incubated for 5 days, whereby a renewal of the substance-containing medium was performed after the first and fourth days. After the incubation, the infected cells were examined by electron microscope in the formation of DB.

clinical HCMV isolate = assay: Dense Body (DB) production in HFF infected with a clinical HCMV isolate, co-cultured with non-infected HFF, electron microscopy; conditions: HFF infected with a clinical isolate of HCMV, co-culture with non-infected HFF
Method: HFF were infected with a clinical HCMV isolate, which was isolated from cells in a late stage of infection, as further described above under 2.1. The infected HFF were co-cultivated with non-infected HFF in mini-trays (3,000 cells/recess). Three different ratios of infected/non-infected cells were produced: undiluted; 1:2 diluted; 1:4 diluted. The substances according to the invention were incubated with the cells at the following concentrations: A: 300 nmol/l; B: 300 nmol/l; C: 3 μmol/l; D: 30 μmol/l.
After 5 days of incubation at 37° C., the electron-microscopic study was carried out. […] The greater the dilution with non-infected cells, the fewer DB accumulated in the cytoplasm. In the control batch without a substance according to the invention, only very few DB could be identified. Moreover, the ejection of infectious particles from the cell nucleus was prevented in turn by the addition of the substances according to the invention.

HCMV strain TB40/E = assay: Dense Body (DB) production in HUVEC infected with HCMV strain TB40/E, electron microscopy; conditions: for virions in the cytoplasm of the treated batch / concentration of DB in the cytoplasm of the infected cells (electron microscope): HUVEC infected with HCMV TB40/E, A: 300 nmol/l, B: 300 nmol/l, C: 3 μmol/l; for concentration of DB in the cytoplasm of the infected cells (electron microscope): control only a few DB; for concentration that led to optimal results (DB production): HUVEC infected with HCMV strain TB40/E
Method: as §1, §2, §3
In another experiment, human endothelial cells from the umbilical vein (HUVEC) were infected with the HCMV strain TB40/E, which was isolated from cells in a late stage of infection. The experimental design corresponds to the one shown under 2.1, whereby the incubation of cells was carried out at the following concentrations of the substances according to the invention: A: 300 nmol/l; B: 300 nmol/l: C: 3 μmol/l; D: […].

## N#CC1(C(=O)Nc2cc(F)cc(NS(=O)(=O)c3ccc(-c4noc(-c5cccc(N)n5)n4)cc3)c2)CC1 [substance (D), N-{3-[({4-[5-(6-aminopyridin-2yl)-1,2,4-oxadiazol-3-yl]phenyl}sulfonyl)amino]-5-fluorophenyl}-1-cyanocyclopropane carboxamide]
HCMV strain AD169
  infectious virus particles in the cytoplasm of treated cells: no single infectious virus particle was to be found
  accumulation of DB in the cytoplasm (electron microscope): large amounts of DB; also recorded: high concentrations of DB
  concentration that led to optimal results (DB production): 500 nmol/L
Clinical HCMV isolate
  concentration that led to good results (DB production): 30 µmol/L
HCMV strain TB40/E
  virions in the cytoplasm of the treated batch: no virions could be detected
  concentration of DB in the cytoplasm of the infected cells (electron microscope): strong concentration of DB
  concentration that led to optimal results (DB production): 30 µmol/L

## COc1c(N2CCC(C(=O)O)CC2)c(F)cc2c(=O)c(C(=O)NCc3ccc(OC(F)(F)F)cc3C)cn(CC(F)(F)F)c12 [substance (C), 1-[6-fluoro-8-methoxy-3-({[2-methyl-4-(trifluoromethoxy)benzyl]amino}carbonyl)-4-oxo-1-(2,2,2-trifluoroethyl)-1,4-dihydroquinolin-7-yl]piperidine-4-carboxylic acid]
HCMV strain AD169
  infectious virus particles in the cytoplasm of treated cells: no single infectious virus particle was to be found
  accumulation of DB in the cytoplasm (electron microscope): large amounts of DB; also recorded: high concentrations of DB
  concentration that led to optimal results (DB production): 500 nmol/L
Clinical HCMV isolate
  concentration that led to good results (DB production): 3 µmol/L
HCMV strain TB40/E
  virions in the cytoplasm of the treated batch: no virions could be detected
  concentration of DB in the cytoplasm of the infected cells (electron microscope): strong concentration of DB
  concentration that led to optimal results (DB production): 3 µmol/L

## COc1cccc(N2CCN(C3=Nc4c(F)cccc4[C@H](CC(=O)O)N3c3cc(C(F)(F)F)ccc3OC)CC2)c1 [substance (A), (4S)-{8-fluoro-2-[4-(3-methoxyphenyl)-1-piperazinyl]-3-[2-methoxy-5-(trifluoromethyl)-phenyl]-3,4-dihydro-4-quinazolinyl}acetic acid]
HCMV strain AD169
  infectious virus particles in the cytoplasm of treated cells: no single infectious virus particle was to be found
  accumulation of DB in the cytoplasm (electron microscope): large amounts of DB; also recorded: high concentrations of DB
  concentration that led to optimal results (DB production): 50 nmol/L
Clinical HCMV isolate
  concentration that led to good results (DB production): 0.3 µmol/L
HCMV strain TB40/E
  virions in the cytoplasm of the treated batch: no virions could be detected
  concentration of DB in the cytoplasm of the infected cells (electron microscope): strong concentration of DB
  concentration that led to optimal results (DB production): 0.3 µmol/L

## Cc1ccc(N2CCN(C(=O)c3nc(NC(=O)Nc4ccc(OC(F)(F)F)cc4)cn3C)CC2)nc1 [substance (B), N-{1-methyl-2-[(4-(5-methyl-pyridin-2-yl)-piperazin-1-yl)carbonyl]-1H-imidazol-4-yl}-N′-[4-(trifluoromethoxy)phenyl]urea]
HCMV strain AD169
  infectious virus particles in the cytoplasm of treated cells: no single infectious virus particle was to be found
  accumulation of DB in the cytoplasm (electron microscope): large amounts of DB; also recorded: high concentrations of DB
  concentration that led to optimal results (DB production): 5 nmol/L
Clinical HCMV isolate
  concentration that led to good results (DB production): 0.3 µmol/L
HCMV strain TB40/E
  virions in the cytoplasm of the treated batch: no virions could be detected
  concentration of DB in the cytoplasm of the infected cells (electron microscope): strong concentration of DB
  concentration that led to optimal results (DB production): 0.3 µmol/L
